Laboratory results: patent US20230076733A1, “Combination Therapy” (AGENCY FOR SCIENCE, TECHNOLOGY AND RESEARCH, priority 2020, published 2023)
“And” between values parts separate entries of the source, which are not always exact repeats. Equal entries are not always repeated.

Assays:
Assay type in all cases: cell-based
[1] = system: EGI-1 cells; assay: soft agar colony formation assay, EGI-1 cells; settings: for Colony count: duplicate wells; for IC50: EGI-1 cells, pre-determined by dose-response assay
Procedure: (§1) The IC50 and EC50 values for each combination partner (a) and (b) with the specific cell lines are determined from the response plot. A dose-response assay for each combination partner and the combination at different concentrations based on the IC50 values of each combination partner was performed. Computed EC50-EC95 values were then generated by a software (as disclosed herein) based on the drug concentration and the respective colony growth numbers.
(§2) 6. Cell lines used and number of cells seeded per well
(§3) (1) Base Layer—0.6% Agar per 300 μL per well.
(§4) Microwave the agar for 1-2 min so that it is completely melted. Add 5.4 ml of the melted agar into 21.6 ml of pre-warmed media (All media and agar preparation is made in excess for 2.5 plates). Aliquot 300 μl of the suspension into each well, avoiding the first and last columns of the plates. Fill the first and last columns of wells with 500 μl of sterile water or phosphate buffered saline. Incubate the plates in 37° C. incubator for 45 min-1 hr to allow agar to solidify.
(§5) (2) Middle Layer— 0.3% Agar plus corresponding number of cells per well
(§6) Trypsinize the adherent cells and suspend them in 5 ml of media. Determine the number of cells in the suspension and calculate the volume of cell suspension required for seeding. Mix the agar and media together first, excluding the volume of cell suspension. Add the cell suspension last into the mixture. Mix well and aliquot 250 μl into each well containing the base layer. Incubate the plates in a 37° C. incubator for 1-1.5 hrs to allow the agar to solidify.
(§7) Prepare the required concentration of compounds based on the IC50 values of each drug.
(§8) (Pre-determine the IC50 values for each drug with the corresponding cell-line using a dose-response assay)
(§9) Row A& B: Aliquot 250 μl of diluted Drug A per well
(§10) Row C&D: Aliquot 250 μl of diluted Drug B per well
(§11) Row E& F: Aliquot 250 μl of diluted Drug A and B mixed at 1:1 ratio for each well
(§12) Assay Results Analysis Method • 1. Score the colonies after 2 to 3 weeks depending on the colony forming status for different cell line. • 2. Before scoring the colonies, add 35 μl MTT (5 mg/ml) to the wells with cells and incubate at 37° C. for 2-3 hrs depending on the intensity of colour development. • 3. Once the colonies are stained, count the total number of colonies formed using the Oxford Optronix GelCount® instrument. • 4. Average the total number of colonies obtained for each drug dose point and represent it as a fraction over the control. This represents the fraction of colony growth. […] Incorporate the fraction of inhibition and the corresponding dose values into the Chou Talalay Software available online (http://www.combosyn.com/) to obtain the combination index values. • 6. The combination index values will give an indication as to whether the combined drugs are synergistic, antagonistic or additive in the treated cells, as shown in Table 2 below.
FIG. 2 illustrates a dose-response assay plate containing EGI-1 cells (Test 1) after testing compounds at different concentrations based on the IC50 values of each compound. EGI-1 is a cell line established from cholangiocarcinoma (bile duct adenocarcinoma).

[2] = system: HPAF-II cells; assay: soft agar colony formation assay, HPAF-II cells; settings: for Colony count: HPAF-II, duplicate wells
Procedure: as §1, §2, §3, §4, §5, §6, §7, §8, §9, §10, §11, §12
FIG. 4 illustrates of a dose-response assay plate containing HPAF-II cells (Test 1) after testing compounds at different concentrations based on the IC50 values of each compound. HPAF-II is a cell line established from pancreatic ductal adenocarcinoma (pancreatic cancer).

[3] = system: MCAS cells; assay: soft agar colony formation assay, MCAS cells; settings: for IC50: MCAS cells, pre-determined by dose-response assay; for Colony count: MCAS, duplicate wells
Procedure: as §1, §2, §3, §4, §5, §6, §7, §8, §9, §10, §11
as §12, with “6.” for “6. The combination index values will give an indication as to whether the combined drugs are synergistic, antagonistic or additive in the treated cells, as shown in Table 2 below.”
MCAS is a cell line established from ovarian mucinous cystadenocarcinoma (ovarian cancer).

[4] = EGI-1, Test 1, 0.25x IC50: dose Olaparib 2.16362, Ex 1 0.00687, combination both 1:1
[5] = EGI-1, Test 1, 0.5x IC50: dose Olaparib 4.32725, Ex 1 0.01375, combination both 1:1
[6] = EGI-1, Test 1, 1x IC50: dose Olaparib 8.6545, Ex 1 0.0275, combination both 1:1
[7] = EGI-1, Test 1, 2x IC50: dose Olaparib 17.309, Ex 1 0.055, combination both 1:1
[8] = EGI-1, Test 1, 4x IC50: dose Olaparib 34.618, Ex 1 0.11, combination both 1:1
[9] = EGI-1, Test 2, 0.25x IC50: dose Olaparib 2.16362, Ex 1 0.00687, combination both 1:1
[10] = EGI-1, Test 2, 0.5x IC50: dose Olaparib 4.32725, Ex 1 0.01375, combination both 1:1
[11] = EGI-1, Test 2, 1x IC50: dose Olaparib 8.6545, Ex 1 0.0275, combination both 1:1
[12] = EGI-1, Test 2, 2x IC50: dose Olaparib 17.309, Ex 1 0.055, combination both 1:1
[13] = EGI-1, Test 2, 4x IC50: dose Olaparib 34.618, Ex 1 0.11, combination both 1:1
[14] = Test 1, 0.25x IC50: dose Olaparib 9.7975, Ex 1 0,001929, combination both 1:1
[15] = Test 1, 0.5x IC50: dose Olaparib 19.535, Ex 1 0.003883, combination both 1:1
[16] = Test 1, 1x IC50: dose Olaparib 39.19, Ex 1 0,007577, combination both 1:1
[17] = Test 1, 2x IC50: dose Olaparib 78.38, Ex 1 0.015354, combination both 1:1
[18] = Test 1, 4x IC50: dose Olaparib 156.76, Ex 1 0.030707, combination both 1:1
[19] = Test 2, 0.25x IC50: dose Olaparib 9.7975, Ex 1 0.001929, combination both 1:1
[20] = Test 2, 0.5x IC50: dose Olaparib 13.595, Ex 1 0.003838, combination both 1:1
[21] = Test 2, 1x IC50: dose Olaparib 39.19, Ex 1 0.007677, combination both 1:1
[22] = Test 2, 2x IC50: dose Olaparib 78.38, Ex 1 0.015354, combination both 1:1
[23] = Test 2, 4x IC50: dose Olaparib 156.76, Ex 1 0.030707, combination both 1:1
[24] = Test 1, 0.25x IC50: dose Olaparib 0.99475, Ex 1 0.07175, combination both 1:1
[25] = Test 1, 0.5x IC50: dose Olaparib 1.9895, Ex 1 0.1435, combination both 1:1
[26] = Test 1, 1x IC50: dose Olaparib 3.979, Ex 1 0.287, combination both 1:1
[27] = Test 1, 2x IC50: dose Olaparib 7.958, Ex 1 0.574, combination both 1:1
[28] = Test 1, 4x IC50: dose Olaparib 15.918, Ex 1 1.148, combination both 1:1
[29] = Test 2, 0.25x IC50: dose Olaparib 0.99475, Ex 1 0.07175, combination both 1:1
[30] = Test 2, 0.5x IC50: dose Olaparib 1.9895, Ex 1 0.1435, combination both 1:1
[31] = Test 2, 1x IC50: dose Olaparib 3.979, Ex 1 0.287, combination both 1:1
[32] = Test 2, 2x IC50: dose Olaparib 7.958, Ex 1 0.574, combination both 1:1
[33] = Test 2, 4x IC50: dose Olaparib 15.916, Ex 1 1.148, combination both 1:1

In the case of Cn1c(=O)c2c(ncn2CC(=O)Nc2ccc(-c3ccccc3)nn2)n(C)c1=O [Ex 1, 2-(1,3-dimethyl-2,6-dioxo-2,3-dihydro-1H-purin-7 (6H)-yl)-N-(6-phenylpyridazin-3-yl)acetamide], the Colony count [1, 4] is reported as 1742 and 1591, the Colony count [1, 5] is reported as 1351 and the Colony count [1, 6] is reported as 985 and 912. For the same molecule, the Colony count [1, 7] was 608 and 646, the Colony count [1, 8] was 515 and 465 and the Colony count [1, 9] was 1488 and 1451. For the same molecule, the Colony count [1, 10] was 1242 and 1139, the Colony count [1, 11] was 816 and 771 and the Colony count [1, 12] was 568 and 476. For the same molecule, the Colony count [1, 13] was 434 and 412, the IC50 [1] was 27.5 nM and the IC50 ([2]; HPAF-II cells, pre-determined by dose-response assay) was 7.7 nM. The Colony count [2, 14] was 564 and 493, the Colony count [2, 15] was 499 and 416 and the Colony count [2, 16] was 387 and 453. The Colony count [2, 17] was 362 and 345, the Colony count [2, 18] was 260 and 201 and the Colony count [2, 19] was 350 and 489. The Colony count [2, 20] was 415 and 426, the Colony count [2, 21] was 296 and the Colony count [2, 22] was 200 and 150. The Colony count [2, 23] was 127 and 105, the IC50 [3] was 287 nM and the Colony count [3, 24] was 598 and 557. For the same molecule, the Colony count [3, 25] was 462 and 445, the Colony count [3, 26] was 301 and 328 and the Colony count [3, 27] was 252 and 273. For the same molecule, the Colony count [3, 28] was 147 and 151, the Colony count [3, 29] was 976 and 921 and the Colony count [3, 30] was 744 and 875. The Colony count [3, 31] was 694 and 706, the Colony count [3, 32] was 644 and 588 and the Colony count [3, 33] was 419 and 326.

In the case of O=C(c1cc(Cc2n[nH]c(=O)c3ccccc23)ccc1F)N1CCN(C(=O)C2CC2)CC1 [Olaparib, reference compound], the Colony count [1, 4] is reported as 1658 and 1605, the Colony count [1, 5] is reported as 1362 and 1300 and the Colony count [1, 6] is reported as 935 and 908. The Colony count [1, 7] was 454 and 489, the Colony count [1, 8] was 209 and 197 and the Colony count [1, 9] was 1591 and 1717. The Colony count [1, 10] was 1403 and 1442, the Colony count [1, 11] was 856 and 1052 and the Colony count [1, 12] was 445 and 482. For the same molecule, the Colony count [1, 13] was 144 and 198, the IC50 ([1]; Homo sapiens) was 8650 nM and the Colony count [2, 14] was 522 and 507. The Colony count [2, 15] was 498 and 471, the Colony count [2, 16] was 381 and 427 and the Colony count [2, 17] was 313 and 244. For the same molecule, the Colony count [2, 18] was 237 and 206, the Colony count [2, 19] was 550 and 426 and the Colony count [2, 20] was 443 and 375. For the same molecule, the Colony count [2, 21] was 278 and 248, the Colony count [2, 22] was 239 and 172 and the Colony count [2, 23] was 142 and 92. For the same molecule, the IC50 [3] was 3980 nM, the Colony count [3, 24] was 429 and 425 and the Colony count [3, 25] was 363 and 402. The Colony count [3, 26] was 273 and 227, the Colony count [3, 27] was 188 and 141 and the Colony count [3, 28] was 112 and 97. For the same molecule, the Colony count [3, 29] was 951 and 929, the Colony count [3, 30] was 741 and 668 and the Colony count [3, 31] was 393 and 359. For the same molecule, the Colony count [3, 32] was 155 and the Colony count [3, 33] was 85 and 82.
